According to patent US4895589A, “Heterocyclic compounds” (Imperial Chemical Industries PLC, priority 1985, dated 1990):
Like-named read-outs stand apart in the source and are kept apart here.

Experiments:
Tomato = conditions: TO, 4000 ppm, 2-3 weeks
Dacrylis glomerata = conditions: DA, 4000 ppm, 2-3 weeks
Protocol: (§6) The compounds were tested for plant growth regulator activity against up to tweleve plant species for various growth effects relevant to plant growth regulation.
(§7) After spray, the plants were grown in a glasshouse with 25° C. day/22° C. night temperatures and supplementary lighting was supplied when necessary (from mercury vapour lamps), to provide a 16 hour photoperiod. The exception to this were the temperate cereals, wheat and barley, which were grown in 16° C. day 13° C. night temperatures
(§8) After 2-3 weeks in the glasshouse, depending on the time of year, the plants were visually assessed for morphological characteristics. Formulations blanks were used as controls to assess the Plants.

Soya = conditions: SY, 4000 ppm, 2-3 weeks
Cynosurus cristatus = conditions: CC, 4000 ppm, 2-3 weeks
Protocol: as §6, §7, §8

Barley [1] = conditions: BR, 4000 ppm, 2-3 weeks
Protocol: as §6, §7, §8

Rice [2] = test: Intermediate Retardant Test, rice; format: in vivo, Rice (Ishikari); conditions: Oryza sativa, 672 h, ~28 days, read-out: Percentage Reduction in Height of Rice (Compared to formulation blank)
Protocol: (§1) Three species are involved in this test RICE, SPRING-BARLEY and APPLES. The variety and growth stages at spray are outlined in Table VI. Compounds were applied at 1000 ppm and 4000 ppm respectively (1 kg and 4 kg ha^-1 at a field volume of 1000 l/ha^-1) as an overall spray. This gives a foliar and root component in the test, i.e. this test will detect the activity of both root and foliar acting compounds. The rice was grown in 4" `paddy` pots, i.e. the roots and bottom of the stems are immersed in water under conditions corresponding to those in paddy fields. Spring barley and apples were grown in 4" pots. The plants were assessed for height to top-most ligule at approximately 28 days after treatment for spring barley and rice and for height to apex at approximately 28 days after the treatment for apples. In each case the result for the 1000 ppm and 4000 ppm test for each compound is compared to the height of the formulation blank in that test, presented as a percentage reduction in height compared to the formulation blank.
as §1, with “in Table XIV. Compounds were” for “in Table VI. Compounds were”, “that test, and presented as” for “that test, presented as”

Apples = test: Intermediate Retardant Test, apples; format: in vivo, Apples (Red Delicious); conditions: 672 h, ~28 days, read-out: Percentage Reduction in Height of Apples (Compared to formulation blank)
Protocol: as §1
as §1, with “in Table XIV. Compounds were” for “in Table VI. Compounds were”, “that test, and presented as” for “that test, presented as”

[3] = test system: plant species of Whole Plant Screen (1) or (2); test: Across screen comparison: total retardation relative to paclobutrazol (Whole Plant Screens (1) and (2)); format: in vivo; conditions: for Total Retardation expressed as a percentage of the total retardation caused by paclobutrazol: compounds of Table I, Table X
Text: The following Example is a general indicative comparison of compounds from EP No. 0052424 with compounds from the preferred class in the present invention. The compounds have not been side-by-side tested on this Example because of the large numbers involved but the retardant activity can be compared using a standard which has been on each test.
The compounds which are compared in this Example have been tested on one of two tests. These are the Whole Plant Screen (1) and Whole Plant Screen (2) the methods for which are described in Examples 17 and 18 respectively.
An across screen comparison between compounds is made by expressing the total retardation (ie. sum of retardation scores recorded for each species tested) caused by the compound as a percentage of the total retardation caused by the standard in that test. The standard chemical gives a measure of the performance of the test and environmental factors. By expressing the test compound activity as a percentage of the standard compound activity these factors can be eliminated . The same standard has been used in every test and this is paclobutrazol a proprietory growth regulator.

Wheat [4] = conditions: WW, 4000 ppm, 2-3 weeks
Spring Barley = test: Intermediate Retardant Test, spring barley; format: in vivo, Spring Barley (Atem/kym); conditions: Hordeum vulgare, 672 h, ~28 days, read-out: Percentage Reduction in Height of Spring Barley (Compared to formulation blank)
Protocol: as §1
as §1, with “in Table XIV. Compounds were” for “in Table VI. Compounds were”, “that test, and presented as” for “that test, presented as”

Agrostis tenius = conditions: AT, 4000 ppm, 2-3 weeks
Protocol: as §6, §7, §8

Barley [5] = test: Whole Plant Screen (2), barley; format: in vivo, Barley (Atem); conditions: BR, 4000 ppm, 2-6 weeks, Table V
Protocol: (§2) Compound numbers 1, 5 and 7 (of the present invention) were tested against compounds A, B, C and D (compound Nos. 12, 2, 24 and 50 of Table 1 EP No. 0052424) on whole plant screen (2). The compounds were tested of plant growth regulator activity against five species and for various growth effects relevant to plant growth regulation. The structures are set out in FIG. 1.
(§3) The plant species used in this screen are presented in Table XII with the leaf stage at which they were sprayed Each chemical was applied at 4000 ppm (4 kg/ha in a 1000 l/ha field volume) using a tracksprayer and a SS8004E (Teejet) nozzle. […]

Maize = test: Whole Plant Screen (2), maize; format: in vivo, Maize (Earliking); conditions: MZ, 4000 ppm, 2-6 weeks, Table V
Protocol: (§4) Compound numbers 12-13, 16-17 and 19-20 were tested on an alternative whole plant screen (2). The compounds were tested for plant growth regulator activity against five species for various growth effects relevant to plant growth regulation.
The plant species used in this screen are presented in Table IV with the leaf stage at which they were sprayed. Each chemical was applied at 4000 ppm (4 kg/ha in a 1000 l/ha field volume) using a tracksprayer and a SS8004E (Teejet) nozzle.
After spray the plants were grown in a glasshouse with 25° C. day 22° C. night temperatures and supplementary lighting was supplied when necessary (from mercury vapour lamps), to provide a 16 hour photoperiod. The exception to this were the temperate cereals, wheat and barley which were grown in 16° C. day 13° C. night temperatures.
(§5) After 2-6 weeks in the glasshouse, depending on the time of year, the plants were visually assessed for morphological characteristics. Formulation blanks were used as controls to assess the plants.
as §2
The plant species used in this screen are presented in Table XII with the leaf stage at which they were sprayed Each chemical was applied at 4000 ppm (4 kg/ha in a 1000 l/ha field volume) using a tracksprayer and a SS8004E (Teejet) nozzle.
After spray the plants were grown in a glasshouse with 25° C. day/22° C. night temperatures and supplementary lighting was supplied when necessary (from mercury vapour lamps), to provide a 16 hour photoperiod. The exception to this were the temperate cereals, wheat and barley which were grown in 16° C. day/13° C. night temperatures.

Rice [6] = test: Whole Plant Screen (2), rice; format: in vivo, Rice (Ishikari); conditions: RC, 4000 ppm
Protocol: as §5, §2, §3

Wheat [7] = test: Whole Plant Screen (2), wheat; format: in vivo, Wheat (Timmo); conditions: WW, 4000 ppm
Protocol: as §4
The plant species used in this screen are presented in Table IV with the leaf stage at which they were sprayed. Each chemical was applied at 4000 ppm (4 kg/ha in a 1000 l/ha field volume) using a tracksprayer and a SS8004E (Teejet) nozzle. […]
After 2-6 weeks in the glasshouse, depending on the time of year, the plants were visually assessed for morphological characteristics. Formulation blanks were used as controls to assess the plants. […]

Vines = conditions: VN, 4000 ppm, 2-3 weeks
Protocol: as §6, §7, §8

Lettuce = conditions: LT, 4000 ppm, 2-3 weeks
Protocol: as §6, §7, §8

Compound	Retardation score (1-3) with greening (G), apical damage (A), tillering/side shooting (T) (Soya)	Retardation score (1-3) with greening (G), apical damage (A), tillering/side shooting (T) (Cynosurus cristatus)	Percent reduction in rice plant height vs formulation blank at 1000 ppm (Rice [2]; Table VII)	Percent reduction in rice plant height vs formulation blank at 4000 ppm (Rice [2]; Table VII)	percent reduction in plant height vs formulation blank at 1000 ppm (Apples; Table IX)	percent reduction in plant height vs formulation blank at 4000 ppm (Apples; Table IX)	Total Retardation expressed as a percentage of the total retardation caused by paclobutrazol [3]	Retardation score (1-3) with greening (G), apical damage (A), tillering/side shooting (T) (Wheat [4])	height reduction vs blank at 1000 ppm (Spring Barley; Table VIII)	height reduction vs blank at 4000 ppm (Spring Barley; Table VIII)	Retardation score (1-3) with greening (G), apical damage (A), tillering/side shooting (T) (Agrostis tenius)	also measured
CCC(C)CC#CC(O)(Cn1cncn1)C(C)(C)C (stereo not drawn) [Compound 10, 2,2-dimethyl-3-hydroxy-3-(4-methyl-hex-1-yne-1-yl)-4-(1,2,4-triazol-1-yl)-butane]	2GA	2 (21-60% retardation)	20.7%	38.2%	9.8%	27.1%	47.8 % of paclobutrazol	2GT	20.2%	72.4%	1 (10-30% retardation)	Retardation score (1-3) with greening (G), apical damage (A), tillering/side shooting (T) (Tomato): 1G; Retardation score (1-3) with greening (G), apical damage (A), tillering/side shooting (T) (Dacrylis glomerata): 1 (10-30% retardation); Retardation score (1-3) with greening (G), apical damage (A), tillering/side shooting (T) (Barley [1]): 2GT
CC(C)(C)C(O)(C#CCCCCl)Cn1cncn1 (stereo not drawn) [Compound 13]	–	–	6%	5.2%	2.8%	9.2%	83.3 % of paclobutrazol	–	17%	41%	–	I = Interligular or internodal length reduction (Barley [5]): 2 (31-60%); I = Interligular or internodal length reduction (Maize): 1 (10-30%); R = Retardation (Maize): 1 (10-30%); I = Interligular or internodal length reduction (Rice [6]; 2-6 weeks, Table V): 2 (31-60%); R = Retardation (Rice [6]; 2-6 weeks, Table V): 2 (31-60%); T = Tillering or side shooting (Rice [6]; 2-6 weeks, Table V): 1 (10-30%); G = Greening effect (Wheat [7]; 2-6 weeks, Table V): 1 (10-30%); T = Tillering or side shooting (Wheat [7]; 2-6 weeks, Table V): 1 (10-30%)
CC(C)(C)C#CC(O)(Cn1cncn1)C(C)(C)C (stereo not drawn) [Compound 5, 2,2-dimethyl-3-hydroxy-3-(3,3-dimethyl-but-1-yne-1-yl)-4-(1,2,4-triazol-1-yl)-butane]	2G	2 (21-60% retardation)	11.4%	21.2%	–	31.5%	28.1 % of paclobutrazol	2 (21-60% retardation)	7%	22.6%	1 (10-30% retardation)	Retardation score (1-3) with greening (G), apical damage (A), tillering/side shooting (T) (Vines): 1GT; Percent reduction in rice plant height vs formulation blank at 1000 ppm (Rice [2]; side-by-side, Table XVI): 10%; Percent reduction in rice plant height vs formulation blank at 4000 ppm (Rice [2]; side-by-side, Table XVI): 10%; percent reduction in plant height vs formulation blank at 1000 ppm (Apples; side-by-side, Table XVII): 2%; percent reduction in plant height vs formulation blank at 4000 ppm (Apples; side-by-side, Table XVII): 24%; range of activity / superiority in comparison with EP 0052424 compounds ([3]; Tables X and XI, across screen comparison): lower range of activity than the rest of the preferred class; T = Tillering or side shooting (Rice [6]; side-by-side, Table XIII): 2 (31-60%); Retardation score (1-3) with greening (G), apical damage (A), tillering/side shooting (T) (Lettuce): 1 (10-30% retardation); G = Greening effect (Wheat [7]; side-by-side, Table XIII): 2 (31-60%); T = Tillering or side shooting (Wheat [7]; side-by-side, Table XIII): 2 (31-60%); height reduction vs blank at 1000 ppm (Spring Barley; side-by-side, Table XV): 9%; height reduction vs blank at 4000 ppm (Spring Barley; side-by-side, Table XV): 11%
